Measured values from the NIST ThermoML archive (doi:10.1016/j.jct.2018.11.014).

Assay: molar heat capacity at constant pressure
Conditions: 101.33 kPa, Crystal, Vacuum adiabatic calorimetry

O=C(CO)[C@@H](O)[C@H](O)[C@H](O)CO [D-fructose]
Conditions	molar heat capacity at constant pressure [J/K/mol]
10 K	0.91
14.06 K	2.815
14.48 K	3.13
14.92 K	3.379
15.36 K	3.634
15.81 K	3.919
16.27 K	4.218
16.77 K	4.66
17.29 K	5.05
17.75 K	5.334
18.24 K	5.753
18.76 K	6.186
19.31 K	6.585
19.89 K	7.065
20 K	7.19
20.47 K	7.626
21.03 K	8.082
21.55 K	8.514
22.09 K	9.015
22.64 K	9.566
23.22 K	10.1
23.84 K	10.61
24.41 K	11.21
24.96 K	11.67
25.84 K	12.67
26.71 K	13.5
27.31 K	14.07
28.19 K	14.91
29.03 K	15.7
29.58 K	16.16
30 K	16.66
30.14 K	16.84
30.73 K	17.43
31.35 K	18.05
31.98 K	18.53
32.62 K	19.19
33.28 K	19.89
33.96 K	20.59
34.65 K	21.26
35.36 K	21.95
36.07 K	22.67
36.78 K	23.42
37.5 K	24.11
38.21 K	24.83
38.91 K	25.52
39.6 K	26.21
40 K	26.59
40.28 K	26.89
40.99 K	27.59
41.73 K	28.3
42.48 K	29.02
43.26 K	29.78
44.03 K	30.54
44.8 K	31.29
45.6 K	32.07
46.41 K	32.85
47.23 K	33.62
48.05 K	34.43
48.87 K	35.18
49.66 K	35.98
50 K	36.27
50.46 K	36.72
51.3 K	37.5
52.17 K	38.33
53.08 K	39.16
54 K	40.03
54.92 K	40.88
55.87 K	41.75
56.84 K	42.65
57.8 K	43.54
58.75 K	44.39
59.68 K	45.25
60 K	45.54
60.61 K	46.09
61.55 K	46.94
62.48 K	47.76
63.4 K	48.61
64.31 K	49.43
65.22 K	50.22
66.18 K	51.08
67.16 K	51.94
68.22 K	52.9
69.33 K	53.88
70 K	54.46
70.43 K	54.83
71.5 K	55.79
72.63 K	56.77
73.81 K	57.78
74.97 K	58.8
76.11 K	59.77
77.23 K	60.74
78.4 K	61.72
79.61 K	62.76
80 K	63.1
80.81 K	63.77
81.98 K	64.8
83.14 K	65.76
84.34 K	66.77
85.59 K	67.84
86.82 K	68.83
88.03 K	69.88
89.22 K	70.89
90 K	71.52
90.46 K	71.89
91.74 K	72.99
93 K	73.99
94.24 K	75.03
95.47 K	76.03
96.74 K	77.1
98.05 K	78.13
99.34 K	79.2
100 K	79.73
100.61 K	80.23
101.88 K	81.25
103.17 K	82.3
104.51 K	83.38
105.83 K	84.42
107.14 K	85.5
108.44 K	86.51
109.77 K	87.55
110 K	87.77
111.13 K	88.69
112.49 K	89.72
113.83 K	90.79
115.15 K	91.82
116.54 K	92.94
118 K	94.07
119.43 K	95.21
120 K	95.65
120.86 K	96.29
122.27 K	97.42
123.72 K	98.53
125.19 K	99.73
126.66 K	100.86
128.15 K	101.99
129.65 K	103.12
130 K	103.4
131.18 K	104.32
132.78 K	105.56
134.41 K	106.79
136.01 K	107.97
137.61 K	109.25
139.24 K	110.5
140 K	111.05
140.9 K	111.75
142.55 K	112.96
144.18 K	114.21
145.81 K	115.47
147.46 K	116.73
149.19 K	117.96
150 K	118.61
150.94 K	119.3
152.67 K	120.61
154.39 K	121.92
156.15 K	123.22
157.94 K	124.55
159.71 K	125.9
160 K	126.11
161.48 K	127.16
163.23 K	128.53
165.01 K	129.85
166.83 K	131.22
168.63 K	132.53
170 K	133.55
170.42 K	133.87
172.26 K	135.21
174.19 K	136.66
176.16 K	138.12
178.11 K	139.54
180 K	140.95
180.05 K	140.98
181.97 K	142.44
183.93 K	143.86
185.92 K	145.37
187.9 K	146.78
189.86 K	148.24
190 K	148.33
191.82 K	149.62
193.8 K	151.13
195.89 K	152.65
198.03 K	154.23
200 K	155.71
200.16 K	155.79
202.27 K	157.38
204.41 K	158.97
206.59 K	160.59
208.75 K	162.27
210 K	163.12
210.91 K	163.79
213.05 K	165.43
215.22 K	166.88
217.41 K	168.61
219.6 K	170.28
220 K	170.57
221.78 K	172.01
223.94 K	173.59
226.14 K	175.1
228.44 K	176.89
230 K	178.09
230.8 K	178.65
233.16 K	180.52
235.5 K	182.33
237.87 K	184.07
240 K	185.67
240.27 K	185.87
242.65 K	187.7
245.03 K	189.43
247.39 K	191.32
249.78 K	193.01
250 K	193.28
252.2 K	194.95
254.6 K	196.74
257 K	198.58
259.38 K	200.5
260 K	200.91
261.79 K	202.31
264.29 K	204.15
266.82 K	206.25
269.35 K	208.09
270 K	208.52
271.87 K	210.03
274.41 K	211.71
276.98 K	213.84
279.54 K	215.75
280 K	216.17
282.08 K	217.72
284.61 K	219.77
287.17 K	221.78
289.76 K	223.86
290 K	224.03
292.33 K	225.93
294.92 K	227.98
297.52 K	230.08
298.15 K	230.55
300 K	232.04
300.15 K	232.18
302.81 K	234.38
305.45 K	236.46
308.08 K	238.4
310 K	240.14
310.7 K	240.73
313.34 K	242.98
316 K	244.99
318.66 K	247.19
320 K	248.27
321.3 K	249.35
323.93 K	251.32
326.58 K	253.53
329.26 K	255.9
330 K	256.36
